The experiment addresses Protein mono-ADP-ribosyltransferase PARP14 (Homo sapiens, UniProt Q460N5). In words: Displacement of ARTK(Bio)QTARK(Aoa-RADP)S from His6-tagged PARP14 MD2 (A994 to N1191 residues) (unknown origin) expressed in bacterial expression system after 30 mins by AlphaScreen assay. In general terms: In Alpha technology, singlet oxygen from a donor bead excites a nearby acceptor bead.
Sequence of Protein mono-ADP-ribosyltransferase PARP14 (Q460N5 whole entry, the tested form may be a part): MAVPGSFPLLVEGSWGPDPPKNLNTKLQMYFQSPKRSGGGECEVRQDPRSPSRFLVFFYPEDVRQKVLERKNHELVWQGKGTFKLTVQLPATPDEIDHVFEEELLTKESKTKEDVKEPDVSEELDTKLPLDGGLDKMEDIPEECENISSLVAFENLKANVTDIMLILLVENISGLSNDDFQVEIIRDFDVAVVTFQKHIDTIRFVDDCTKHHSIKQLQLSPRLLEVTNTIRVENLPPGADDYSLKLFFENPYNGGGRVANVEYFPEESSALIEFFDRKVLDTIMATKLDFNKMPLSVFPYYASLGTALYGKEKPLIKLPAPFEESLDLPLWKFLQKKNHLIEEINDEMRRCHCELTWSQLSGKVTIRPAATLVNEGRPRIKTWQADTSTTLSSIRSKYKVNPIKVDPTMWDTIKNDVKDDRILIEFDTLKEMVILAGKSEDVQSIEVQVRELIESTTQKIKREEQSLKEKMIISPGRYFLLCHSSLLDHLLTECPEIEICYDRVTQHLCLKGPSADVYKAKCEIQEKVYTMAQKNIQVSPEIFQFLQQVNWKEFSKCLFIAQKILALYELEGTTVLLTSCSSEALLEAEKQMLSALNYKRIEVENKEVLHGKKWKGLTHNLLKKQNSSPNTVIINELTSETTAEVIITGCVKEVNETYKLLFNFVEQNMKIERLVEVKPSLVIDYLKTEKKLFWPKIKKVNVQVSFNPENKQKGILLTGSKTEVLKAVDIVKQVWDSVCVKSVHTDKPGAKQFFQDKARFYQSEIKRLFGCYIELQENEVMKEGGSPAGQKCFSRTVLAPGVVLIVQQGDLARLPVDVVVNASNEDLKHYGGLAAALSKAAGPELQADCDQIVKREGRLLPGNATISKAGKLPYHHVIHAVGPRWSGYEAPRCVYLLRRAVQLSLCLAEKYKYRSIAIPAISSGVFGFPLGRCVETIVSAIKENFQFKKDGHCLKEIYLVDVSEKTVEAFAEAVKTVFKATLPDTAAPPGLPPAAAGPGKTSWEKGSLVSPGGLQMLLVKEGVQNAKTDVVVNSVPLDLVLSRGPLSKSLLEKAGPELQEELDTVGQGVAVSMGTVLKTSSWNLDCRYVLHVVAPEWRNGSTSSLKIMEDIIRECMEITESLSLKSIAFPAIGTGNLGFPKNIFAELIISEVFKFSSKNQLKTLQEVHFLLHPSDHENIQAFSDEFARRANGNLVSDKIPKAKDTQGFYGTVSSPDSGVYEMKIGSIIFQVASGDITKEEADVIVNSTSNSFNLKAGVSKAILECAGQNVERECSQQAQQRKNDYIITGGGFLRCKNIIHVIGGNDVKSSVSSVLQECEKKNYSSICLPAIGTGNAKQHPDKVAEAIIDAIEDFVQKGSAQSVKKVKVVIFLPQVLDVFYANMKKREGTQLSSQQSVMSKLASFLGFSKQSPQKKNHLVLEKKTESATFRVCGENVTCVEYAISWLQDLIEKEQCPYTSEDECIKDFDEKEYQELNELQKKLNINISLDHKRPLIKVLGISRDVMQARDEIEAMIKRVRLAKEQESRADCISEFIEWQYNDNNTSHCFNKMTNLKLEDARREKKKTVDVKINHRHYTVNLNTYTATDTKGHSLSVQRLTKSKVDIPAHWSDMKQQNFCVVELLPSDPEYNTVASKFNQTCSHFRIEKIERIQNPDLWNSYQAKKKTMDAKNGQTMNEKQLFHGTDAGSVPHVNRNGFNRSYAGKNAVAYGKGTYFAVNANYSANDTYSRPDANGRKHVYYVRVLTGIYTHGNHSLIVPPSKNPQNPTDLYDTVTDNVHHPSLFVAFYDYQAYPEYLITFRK
As to `CC(=O)Nc1ccccc1-c1cccc2c(C(C)C)c[nH]c12`, the IC50 was found to be 18 µM.

Consider `COc1ccc2[nH]c3c(-c4ccccc4NC(C)=O)cccc3c2c1`, for which the IC50 is above 50 µM.

For `CC(=O)Nc1ccccc1-c1cccc2c3c([nH]c12)CCNC3`, the IC50 is above 50 µM.

Compound `CC(Nc1ccccc1-c1cccc2c1[nH]c1ccccc12)C(F)(F)F` (racemic) came in with an IC50 above 50 µM.

By IC50 is commonly meant the midpoint of a concentration-inhibition curve.

For the origin of these results see ChEMBL document CHEMBL4219165, “Discovery of a novel allosteric inhibitor scaffold for polyadenosine-diphosphate-ribose polymerase 14 (PARP14) macrodomain 2” (Bioorg Med Chem, 2018).
